Data as given in ChEMBL document CHEMBL5385917, “Irpetones A and B, Anti-Osteoclastic Heptaketides from a Marine Mesophotic Zone Ircinia Sponge-Associated Fungus Irpex sp. NBUF088” (J Nat Prod, 2024).
Calls of active or inactive are those of the source. No cut-off for these calls is given here.

Key:
[1] = Cytotoxicity against mouse BMMC cells assessed as inhibition of cell growth incubated for 48 hrs by MTT assay; format: toxicity, cell-based
[2] = biological target: Mitogen-activated protein kinase 1 and 3 (ERK2 and ERK1) (Mus musculus) (UniProt P63085+Q63844); assay: Inhibition of RANKL-induced ERK1/2 phosphorylation in mouse BMMC cells by Western blot analysis; format: cell-based; settings: dose 0.5-1.5 µM
BMMC [3] = assay: Inhibition of RANKL-induced JNK1/2 phosphorylation in mouse BMMC cells by Western blot analysis; format: cell-based; settings: dose 0.5-1.5 µM
[4] = biological target: MAP kinase p38 (Mus musculus) (UniProt P47811+O08911+Q9WUI1+Q9Z1B7); assay: Inhibition of RANKL-induced p38 MAPK phosphorylation in mouse BMMC cells by Western blot analysis; format: cell-based; settings: dose 0.5-1.5 µM
[5] = Selectivity index, ratio of CC50 for cytotoxicity against mouse BMMC cells to IC50 for anti-osteoclastogenic activity in mouse BMMC cells; format: toxicity, cell-based; settings: read-out: Ratio CC50/IC50
BMMC [6] = assay: Anti-osteoclastogenic activity in mouse BMMC cells assessed as inhibition of RANKL mediated osteoclast differentiation by TRAP activity; format: functional, cell-based
BMMC [7] = assay: Inhibition of RANKL-induced NFkappaB signaling in mouse BMMC cells assessed as inhibition of NFkappab nuclear translocation at 5 to 10 uM by Western blot analysis; format: cell-based; settings: dose 5-10 µM

Chain of Mitogen-activated protein kinase 1 and 3 (ERK2 and ERK1) (Mus musculus) (P63085 whole entry, looked up): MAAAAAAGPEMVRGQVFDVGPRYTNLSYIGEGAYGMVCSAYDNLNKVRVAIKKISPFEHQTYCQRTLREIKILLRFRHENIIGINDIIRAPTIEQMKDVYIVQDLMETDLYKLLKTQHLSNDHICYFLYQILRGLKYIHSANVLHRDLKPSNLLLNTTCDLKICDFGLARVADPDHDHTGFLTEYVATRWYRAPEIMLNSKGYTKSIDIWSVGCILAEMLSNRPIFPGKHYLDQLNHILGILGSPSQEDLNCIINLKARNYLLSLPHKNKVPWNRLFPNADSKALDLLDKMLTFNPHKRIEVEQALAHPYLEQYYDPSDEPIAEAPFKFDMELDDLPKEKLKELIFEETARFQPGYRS
Chain of Mitogen-activated protein kinase 1 and 3 (ERK2 and ERK1) (Mus musculus) (Q63844 whole entry, looked up): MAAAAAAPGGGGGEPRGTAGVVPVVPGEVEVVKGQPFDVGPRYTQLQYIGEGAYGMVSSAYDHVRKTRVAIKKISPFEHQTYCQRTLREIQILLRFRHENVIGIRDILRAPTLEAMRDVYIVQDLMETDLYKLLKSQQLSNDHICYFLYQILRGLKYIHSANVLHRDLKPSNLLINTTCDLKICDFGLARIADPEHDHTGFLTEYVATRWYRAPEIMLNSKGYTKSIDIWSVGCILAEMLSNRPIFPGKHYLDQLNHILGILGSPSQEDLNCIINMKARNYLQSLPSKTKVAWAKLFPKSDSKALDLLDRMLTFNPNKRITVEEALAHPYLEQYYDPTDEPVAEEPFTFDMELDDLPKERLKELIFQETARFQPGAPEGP

For `C[C@@H]1C=C2C=C[C@@](C)(O)[C@]3(C)C(=O)[C@@](O)(CO)O[C@@H](C1)[C@@H]23`, the CC50 at 48 h [1] was > 30 µM, the inhibition [2] was “Dose-Dependent Effect” and the inhibition (BMMC [3]) was “Dose-Dependent Effect”. For the same molecule, the inhibition [4] was “Dose-Dependent Effect”, the selectivity ratio [5] was > 4.8 and the IC50 (BMMC [6]) was 6.3 µM. The inhibition (BMMC [7]) was “Active”.
